Test results from ChEMBL document CHEMBL3822445, “Histone demethylating agents as potential S-adenosyl-l-methionine-competitors” (Medchemcomm, 2016).
Activity calls are given as the source filed them. The rule behind the calls is not given here.

How the values were obtained:
[1] = Antiproliferative activity against human Ovarian cancer LA#110 cells assessed as cell survival at 20 uM after 72 hrs by MTT assay relative to control; assay type: functional; details: read-out: Survival
MCF7 [2] = assay: Induction of apoptosis in human MCF7 cells assessed as early apoptotic cells at 15 uM after 72 hrs by AnnexinV-FITC staining based flow cytometry (reference value: 20.1 +/- 7.3 %); assay type: functional
MCF7 [3] = assay: Induction of apoptosis in human MCF7 cells assessed as viable cells at 15 uM after 48 hrs by AnnexinV-FITC staining based flow cytometry (reference value: 74.4 +/- 9.1 %); assay type: functional; details: MCF7, 48 h, read-out: Activity
MCF7 [4] = assay: Cell cycle arrest in human MCF7 cells assessed as accumulation at S phase at 15 uM after 24 to 72 hrs by flow cytometry relative to control; assay type: functional
MCF7 [5] = assay: Induction of apoptosis in human MCF7 cells assessed as early apoptotic cells at 15 uM after 48 hrs by AnnexinV-FITC staining based flow cytometry (reference value: 7.8 +/- 5.3 %); assay type: functional
MCF7 [6] = assay: Induction of apoptosis in human MCF7 cells assessed as necrotic cells at 15 uM after 72 hrs by AnnexinV-FITC staining based flow cytometry (reference value: 7.6 +/- 1 %); assay type: functional
[7] = Antiproliferative activity against human Ovarian cancer DC#110 cells assessed as cell survival at 20 uM after 72 hrs by MTT assay relative to control; assay type: functional; details: read-out: Survival
[8] = target: T1, Histone-lysine N-methyltransferase EHMT2 (Homo sapiens) (UniProt Q96KQ7); assay: Inhibition of G9a in human MCF7 nuclear extracts assessed as reduction in H3K9 levels at 15 uM after 48 hrs; assay type: cell-based
T1 sequence (whole entry): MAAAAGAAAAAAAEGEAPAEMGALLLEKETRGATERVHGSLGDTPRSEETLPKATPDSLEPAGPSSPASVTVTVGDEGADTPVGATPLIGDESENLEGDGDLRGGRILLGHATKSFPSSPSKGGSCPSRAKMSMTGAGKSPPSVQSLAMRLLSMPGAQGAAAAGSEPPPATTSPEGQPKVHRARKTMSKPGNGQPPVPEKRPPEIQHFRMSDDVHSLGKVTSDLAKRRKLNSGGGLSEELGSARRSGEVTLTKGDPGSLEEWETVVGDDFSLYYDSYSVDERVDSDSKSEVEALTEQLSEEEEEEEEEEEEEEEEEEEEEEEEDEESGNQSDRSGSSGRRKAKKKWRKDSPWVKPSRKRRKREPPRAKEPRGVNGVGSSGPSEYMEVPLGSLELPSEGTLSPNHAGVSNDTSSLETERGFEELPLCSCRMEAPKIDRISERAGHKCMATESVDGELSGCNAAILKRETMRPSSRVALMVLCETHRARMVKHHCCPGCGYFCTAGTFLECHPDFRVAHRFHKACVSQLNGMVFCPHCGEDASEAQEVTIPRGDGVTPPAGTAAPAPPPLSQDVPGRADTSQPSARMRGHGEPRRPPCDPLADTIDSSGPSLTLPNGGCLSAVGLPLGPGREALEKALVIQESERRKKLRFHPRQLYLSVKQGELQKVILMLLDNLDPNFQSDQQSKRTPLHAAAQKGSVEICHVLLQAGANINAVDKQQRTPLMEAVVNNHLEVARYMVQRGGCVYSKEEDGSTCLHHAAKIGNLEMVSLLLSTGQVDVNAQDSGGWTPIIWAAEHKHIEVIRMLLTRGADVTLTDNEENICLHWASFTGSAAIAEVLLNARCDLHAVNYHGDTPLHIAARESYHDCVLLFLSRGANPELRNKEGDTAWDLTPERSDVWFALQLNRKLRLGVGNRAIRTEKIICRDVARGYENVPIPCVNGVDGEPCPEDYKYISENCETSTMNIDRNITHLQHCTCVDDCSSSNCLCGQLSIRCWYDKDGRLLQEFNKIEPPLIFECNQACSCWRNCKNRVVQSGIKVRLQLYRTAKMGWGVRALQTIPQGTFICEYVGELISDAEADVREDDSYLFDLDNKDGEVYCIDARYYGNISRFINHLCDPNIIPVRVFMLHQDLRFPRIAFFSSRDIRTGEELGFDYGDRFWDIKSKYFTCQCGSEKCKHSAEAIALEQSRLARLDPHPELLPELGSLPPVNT

MCF7 [9] = assay: Inhibition of DNA methylation in human MCF7 cells assessed as reduction in H3K9me3 levels at 15 uM after 48 hrs by Western blot analysis; assay type: cell-based
MCF7 [10] = assay: Induction of apoptosis in human MCF7 cells assessed as necrotic cells at 15 uM after 48 hrs by AnnexinV-FITC staining based flow cytometry (reference value: 10.2 +/- 1.9 %); assay type: functional
MCF7 [11] = assay: Inhibition of DNA methylation in human MCF7 cells assessed as reduction in H3K27me3 levels at 15 uM after 48 hrs by Western blot analysis; assay type: cell-based
MCF7 [12] = assay: Inhibition of DNA methylation in human MCF7 cells assessed as decrease in methylation of RARbeta DNA by qPCR method; assay type: cell-based
MSTO-211H = assay: Antiproliferative activity against human MSTO-211H cells after 48 to 72 hrs by MTT assay; assay type: functional, cell-based
MCF7 [13] = assay: Induction of apoptosis in human MCF7 cells assessed as late apoptotic cells at 15 uM after 48 hrs by AnnexinV-FITC staining based flow cytometry (reference value: 7.6 +/- 5.9 %); assay type: functional
[14] = Antiproliferative activity against human Ovarian cancer LA#83 cells assessed as cell survival at 20 uM after 72 hrs by MTT assay relative to control; assay type: functional; details: read-out: Survival
MCF7 [15] = assay: Antiproliferative activity against human MCF7 cells after 48 to 72 hrs by MTT assay; assay type: functional, cell-based
MCF7 [16] = assay: Inhibition of DNA methylation in human MCF7 cells assessed as decrease in 5-methylcytosine level by ELISA; assay type: cell-based
MCF7 [17] = assay: Induction of apoptosis in human MCF7 cells assessed as late apoptotic cells at 15 uM after 72 hrs by AnnexinV-FITC staining based flow cytometry (reference value: 11.8 +/- 2.2 %); assay type: functional
MCF7 [18] = assay: Induction of apoptosis in human MCF7 cells assessed as viable cells at 15 uM after 72 hrs by AnnexinV-FITC staining based flow cytometry (reference value: 60.5 +/- 6 %); assay type: functional; details: MCF7, 72 h, read-out: Activity
[19] = Antiproliferative activity against human H460 cells after 48 to 72 hrs by MTT assay; assay type: functional, cell-based; details: NCI-H460
[20] = Antiproliferative activity against human Ovarian cancer DC#83 cells assessed as cell survival at 20 uM after 72 hrs by MTT assay relative to control; assay type: functional; details: read-out: Survival

CCCCN1C(=O)[C@@H]2Cc3c([nH]c4ccccc34)CN2C1=O
viability at 20 µM [1]: 66.7%
Activity (MCF7 [2]): 27.9%
viability at 15 µM (MCF7 [3]): 69%
Activity (MCF7 [4]): 10.8%
Activity (MCF7 [5]): 13%
Activity (MCF7 [6]): 6.7%
viability at 20 µM [7]: 80.8%
inhibition [8]: Active
inhibition (MCF7 [9]): inactive
Activity (MCF7 [10]): 4.2%
inhibition (MCF7 [11]): inactive
inhibition (MCF7 [12]): inactive
IC50 (MSTO-211H): > 20 µM
Activity (MCF7 [13]): 13.8%
viability at 20 µM [14]: 81.9%
IC50 (MCF7 [15]): 37.5 µM
inhibition (MCF7 [16]): Active
Activity (MCF7 [17]): 17.7%
viability at 15 µM (MCF7 [18]): 47.7%
IC50 [19]: > 20 µM
viability at 20 µM [20]: 93.3%
